The source of these data is ChEMBL document CHEMBL1126533, “Synthesis of a potential photoaffinity labelling reagent for HIV-1 reverse transcriptase” (Bioorg Med Chem Lett, 1993).

Test [1] has as its system MT4. Description: Effective concentration required to achieve 50% protection of MT-4 cells against the cytopathic effect of HIV-1. The test is classed as functional, cell-based. The conditions noted are these: Homo sapiens. In general terms: Cytopathic effects are the visible damage that an infection or toxin causes in cultured cells.
Test [2] relates to MT4. Kind of test: Cytotoxic concentration required to reduce viability of mock-infected MT-4 cells by 50%. The test is classed as functional. The following applies: Homo sapiens.

Usually EC50 stands for the concentration that produces a half-maximal response. A lower EC50 goes with an effect from little substance. As usually defined, the CC50 is the concentration giving 50% cytotoxicity. The low end stands for greater toxicity to the cells, the high end for lower toxicity to the cells. Regarding `CCOCn1c(Cc2cccc(O)c2)c(CC)c(=O)[nH]c1=O`, the concentration for a half-maximal effect (EC50) in test [1] was 0.4 µM. Besides, the CC50 in test [2] came to 201 µM. In test [1], `CCOCn1c(Sc2ccccc2)c(CC)c(=O)[nH]c1=O` had an EC50 of 0.018 µM. The compound further displayed a CC50 in test [2] of 197 µM. For `CCOCn1c(C(OC(C)=O)c2cccc([N+](=O)[O-])c2)c(CC)c(=O)[nH]c1=O` (stereo not drawn), in that order: 29 µM and 283 µM. For `CCOCn1c(Cc2cccc(N=[N+]=[N-])c2)c(CC)c(=O)[nH]c1=O` the same measures were 0.011 µM and 117 µM. For `CCOCn1c(Cc2cccc(N)c2)c(CC)c(=O)[nH]c1=O`, in that order: 0.14 µM and 297 µM. In test [1], `CCOCn1c(C(=O)c2cccc([N+](=O)[O-])c2)c(CC)c(=O)[nH]c1=O` displayed a half-maximal effective concentration (EC50) of 0.21 µM. For the same compound, it took 232 µM to reach half-maximal cytotoxicity in test [2] (CC50).

On to `Cc1c(Sc2ccccc2)n(COCCO)c(=O)[nH]c1=O` [HEPT], for which, in test [2], the CC50 worked out at 740 µM.
